From US8889595B2, “Herbicides” (Syngenta Participations AG, priority 2008, dated 2014)

Tests used:
Type in all cases: in vivo
Lolium perenne (LOLPE) [1] = test: Pre-emergence herbicidal activity, glasshouse; details: pre-emergence spray after one day cultivation; rate 250 g/ha; evaluated after 13 days; 100=total damage to plant, 0=no damage to plant
Procedure: (§1) Seeds of a variety of test species are sown in standard soil in pots. After cultivation for one day (pre-emergence) or after 8 days cultivation (post-emergence) under controlled conditions in a glasshouse (at 24/16° C., day/night; 14 hours light; 65% humidity), the plants are sprayed with an aqueous spray solution derived from the formulation of the technical active ingredient in acetone/water (50:50) solution containing 0.5% Tween 20 (polyoxyethelyene sorbitan monolaurate, CAS RN 9005-64-5). The test plants are then grown in a glasshouse under controlled conditions in a glasshouse (at 24/16° C., day/night; 14 hours light; 65% humidity) and watered twice daily. After 13 days for pre and post-emergence, the test is evaluated (100=total damage to plant; 0=no damage to plant). Test plants: • Lolium perenne (LOLPE), Alopecurus myosuroides (ALOMY), Echinochloa crus-galli (ECHCG), Avena fatua (AVEFA)

[2] = tested on: Alopecurus myosuroides (ALOMY); test: Pre-emergence herbicidal activity, glasshouse; details: pre-emergence spray after one day cultivation; rate 250 g/ha; evaluated after 13 days; 100=total damage to plant, 0=no damage to plant
Procedure: as §1

[3] = tested on: Echinochloa crus-galli (ECHCG); test: Pre-emergence herbicidal activity, glasshouse; details: pre-emergence spray after one day cultivation; rate 250 g/ha; evaluated after 13 days; 100=total damage to plant, 0=no damage to plant
Procedure: as §1

Avena fatua (AVEFA) [4] = test: Pre-emergence herbicidal activity, glasshouse; details: pre-emergence spray after one day cultivation; rate 250 g/ha; evaluated after 13 days; 100=total damage to plant, 0=no damage to plant
Procedure: as §1

Lolium perenne (LOLPE) [5] = test: Post-emergence herbicidal activity, glasshouse; details: post-emergence spray after 8 days cultivation; rate 250 g/ha; evaluated after 13 days; 100=total damage to plant, 0=no damage to plant
Procedure: as §1

[6] = tested on: Alopecurus myosuroides (ALOMY); test: Post-emergence herbicidal activity, glasshouse; details: post-emergence spray after 8 days cultivation; rate 250 g/ha; evaluated after 13 days; 100=total damage to plant, 0=no damage to plant
Procedure: as §1

[7] = tested on: Echinochloa crus-galli (ECHCG); test: Post-emergence herbicidal activity, glasshouse; details: post-emergence spray after 8 days cultivation; rate 250 g/ha; evaluated after 13 days; 100=total damage to plant, 0=no damage to plant
Procedure: as §1

Avena fatua (AVEFA) [8] = test: Post-emergence herbicidal activity, glasshouse; details: post-emergence spray after 8 days cultivation; rate 250 g/ha; evaluated after 13 days; 100=total damage to plant, 0=no damage to plant
Procedure: as §1

SMILES	Pre-Emergence Activity LOLPE (Lolium perenne (LOLPE) [1])	Pre-Emergence Activity ALOMY [2]	Pre-Emergence Activity ECHCG [3]	Pre-Emergence Activity AVEFA (Avena fatua (AVEFA) [4])	Post-Emergence Activity LOLPE (Lolium perenne (LOLPE) [5])	Post-Emergence Activity ALOMY [6]	Post-Emergence Activity ECHCG [7]	Post-Emergence Activity AVEFA (Avena fatua (AVEFA) [8])
COC1=C(c2c(C)cc(C)cc2C)C(=O)C(C(O)c2cc(C)c(C)o2)C1 (centres unmarked) [Compound P1]	40	0	0	0				
Cc1cc(C)c(C2C(=O)CC(Cc3cc(C)on3)C2=O)c(C)c1 (centres unmarked) [Compound T3, 4-(5-methyl-isoxazol-3-ylmethyl)-2-(2,4,6-trimethyl-phenyl)-cyclopentane-1,3-dione]	100	100	80	70	90	90	80	80
Cc1cc(C)c(C2C(=O)C/C(=C\c3ccco3)C2=O)c(C)c1 (centres unmarked) [Compound T8]					30	10	30	0
Cc1cc(C)c(C2=C(OC(=O)C(C)(C)C)C/C(=C\c3ccoc3)C2=O)c(C)c1 [Compound P2, 2,2-Dimethyl-propionic acid 4-[1-furan-3-yl-meth-(E)-ylidene]-3-oxo-2-(2,4,6-trimethyl-phenyl)-cyclopent-1-enyl ester]	90	0	0	0				
Cc1cc(C)c(C2C(=O)CC(Cc3ccoc3)C2=O)c(C)c1 (centres unmarked) [Compound T2, 4-Furan-3-ylmethyl-2-(2,4,6-trimethyl-phenyl)-cyclopentane-1,3-dione]	80	30	0	20	80	60	80	20
Cc1cc(C)c(C2C(=O)CC(Cc3ccc(C)o3)C2=O)c(C)c1 (centres unmarked) [Compound T4]					50	40	30	20
